Read-outs that look alike come from different tables or passages of the source.
Tests used:
factor VII (F7) = settings: mouse liver; siRNA; cited from earlier work
liver [1] = assay: Fluc activity in the liver of mice administered Fluc mRNA-loaded lipid nanoparticles; assay type: in vivo, BALB/c mice; settings: Example 31, Fig. 10; Fluc mRNA-loaded lipid nanoparticles containing 3 mol% DSPC; N = 3
Procedure: (§1) Lipid nanoparticles were administered to mice by intravenous injection into the tail vein using a 27G needle. Unless otherwise specified, BALB/c mice (4 to 5 weeks old, female) were used.
(§2) First, BALB/c mice (female, 4 weeks old) were intravenously injected with lipid nanoparticles encapsulating Fluc mRNA (Fluc mRNA-loaded lipid nanoparticles) at a dose of 0.1 mg mRNA/kg. Six hours after intravenous injection, the mice were euthanized, each tissue was collected, frozen in liquid nitrogen, and stored at -80°C. The tissues were homogenized in passive lysis buffer (manufactured by Promega) using a bead-type cell disruptor (Micro Smash MS-100R, manufactured by TOMY Seiko). Tissue debris was removed by centrifugation, and the supernatant was collected. Fluc activity in the supernatant was measured using the Luciferase Assay System (E1500, manufactured by Promega) according to the manufacturer's protocol. Luminescence was measured using a luminometer (Luminescencer-PSN, manufactured by ATTO). Protein concentration was determined using a commercially available assay kit (BCA Protein Assay Kit, manufactured by Pierce). Fluc activity was expressed as relative light units (RLU) per mg of protein.
Subsequently, lipid nanoparticles encapsulating Fluc mRNA prepared using TxT-5-5A10, TxT-5-5A12, TxT-5-5A12β, TxT-5-5A14, and TxT-5-5A16 were administered to mice to evaluate luciferase expression levels (Fluc activity) in various tissues. Specifically, each Fluc mRNA-loaded lipid nanoparticle was administered to Balb/c mice at a dose of 0.1 mg mRNA/kg. Six hours after administration, the mice were euthanized, and their organs were collected to measure Fluc activity (RLU/mg protein) (N = 2 or 4).

various tissues = assay: Fluc activity in various tissues of mice administered Fluc mRNA-loaded lipid nanoparticles; assay type: in vivo, BALB/c mice; settings: Example 31, Fig. 10; Fluc mRNA-loaded lipid nanoparticles containing 3 mol% DSPC; N = 3
Procedure: as §1
as §2, with “protein. […]” for “protein.”

[2] = Average particle size and polydispersity index of lipid nanoparticles (dynamic light scattering); assay type: physicochemical
Procedure: (§3) The average particle size (number average value), ζ-average particle size, and polydispersity index (PdI) of the lipid nanoparticles in PBS(-) (pH 7.4), and the zeta potential in 10 mM HEPES buffer (pH 7.4) were measured using an analyzer "Zetasizer Nano ZS ZEN3600" (manufactured by Malvern) utilizing dynamic light scattering.

[3] = Zeta potential of lipid nanoparticles; assay type: physicochemical
Procedure: as §3

[4] = Encapsulation rate of lipid nanoparticles (Ribogreen); assay type: physicochemical
Procedure: The encapsulation rate of the lipid nanoparticles was determined by measuring the amount of encapsulated nucleic acid (mRNA) using Ribogreen (manufactured by Life Technologies), which is an RNA intercalator. The mRNA amount was quantified based on a calibration curve prepared from a series of diluted mRNA solutions at known concentrations.
Specifically, 10 mM HEPES buffer (pH 7.4), 10 w/v% Triton X-100, and Ribogreen were mixed at 978.8 µL, 20 µL, and 1.25 µL per 10 wells, respectively, to obtain a Triton(+) buffer. A Triton(-) buffer was obtained in replacing Triton X-100 with 10 mM HEPES buffer (pH 7.4). 100 µL/well of the sample was added to a black 96-well plate for fluorescence measurement, and 100 µL/well of Triton(+) buffer or Triton(-) buffer was added. After the plate was gently shaken on a shaking incubator (SI-300, manufactured by AS ONE) (700 rpm, 30 seconds), the fluorescence intensity of each well was measured using a microplate reader (VARIOSKAN LUX, manufactured by Thermo Fisher Scientific) (wavelength Ex/Em=500 nm/525 nm), and the nucleic acid encapsulation rate (%) was calculated.

liver [5] = assay: EGFP expression in liver tissue sections of mice administered EGFP mRNA-loaded lipid nanoparticles (confocal microscopy); assay type: in vivo, Balb/c mice; settings: Example 27, Fig. 6; EGFP mRNA-loaded lipid nanoparticles TxT/DSPC/chol/PEG-DMG=50/3/47/1.5 (mol%); 24 hours post-administration
Procedure: Subsequently, each EGFP mRNA-loaded lipid nanoparticle was administered to Balb/c mice at a dose of 0.2 mg mRNA/kg. At 23 hours and 50 minutes post-administration, fluorescently labeled lectin (DyLight-649 Lycopersicon (Tomato) Lectin) was intravenously injected via the tail vein at 40 µg/mouse to fluorescently label vascular endothelial cells. At 24 hours after administration of the lipid nanoparticles, the mice were euthanized, and their livers were collected to prepare tissue sections. For nuclear staining, the tissue sections were immersed in a nuclear staining solution (1 µg/mL Hoechst 33342 dissolved in PBS(-)), cooled on ice, and incubated for at least 30 minutes in the dark. The stained tissue sections were then observed using a confocal laser scanning microscope. Subsequently, in the same manner as Example 26, each EGFP mRNA-loaded lipid nanoparticle was administered to Balb/c mice. At 23 hours and 50 minutes post-administration, fluorescently labeled lectin was administered. At 24 hours after administration of the lipid nanoparticles, the mice were euthanized, and their livers were collected to prepare tissue sections. Each tissue section was observed using a confocal laser scanning microscope. In the figure, the upper panels show fluorescence images of EGFP, and the lower panels show fluorescence images of vascular endothelial cells (fluorescently labeled lectin).

[6] = lipid nanoparticles, tns
Procedure: (§4) The apparent pKa of the lipid nanoparticles was measured using p-toluenesulfonic acid (TNS). First, TNS (final concentration: 0.75 µM) and lipid nanoparticles (final concentration: 30 µM) were mixed in a buffer (200 mL) adjusted to each pH (pH 3.5 to 9.5). As the buffer, 20 mM citrate buffer, 20 mM sodium phosphate buffer, or 20 mM Tris-HCl buffer containing 130 mM NaCl was used. The fluorescence intensity of the prepared mixture was measured using a fluorescence spectrophotometer (Varioskan Lux, manufactured by Thermo Fisher Scientific) with the settings of λex=321 nm and λem=447 nm. Among the measured values, the highest value and the lowest value were set as 100% and 0% ionization degrees, respectively, and the pH showing a 50% ionization degree was calculated as the apparent pKa. The content ratio (%) of cationically charged pH-sensitive cationic lipid was calculated using the Henderson-Hasselbalch equation.

[7] = Apparent pKa of lipid nanoparticles (TNS)
Procedure: as §4

spleen = assay: Fluc activity in the spleen of mice administered Fluc mRNA-loaded lipid nanoparticles; assay type: in vivo, BALB/c mice; settings: Example 22, Fig. 1; TxT/DSPC/chol/PEG-DMG=50/15/35/1.5 (mol%); 0.1 mg mRNA/kg intravenous; six hours after administration; comparison among TxT lipids
Procedure: as §1
as §2, with “protein. […]” for “protein.”

[8] = Table 3, Fluc mRNA-loaded lipid nanoparticles, TxT/DSPC/chol/PEG-DMG=50/3/47/1.5 (mol%)
[9] = Table 5, EGFP mRNA-loaded lipid nanoparticles, TxT/DSPC/chol/PEG-DMG=50/3/47/1.5 (mol%), total flow rate 3.0 mL/min
[10] = Table 4, Fluc mRNA-loaded lipid nanoparticles, TxT-5-5A14/DSPC/chol/PEG-DMG=50/3/47/1.5, SM-102, ALC-0315 or MC3/DSPC/chol/PEG-DMG=50/10/40/1.5 (mol%)
[11] = Table 1, Fluc mRNA-loaded lipid nanoparticles, TxT/DSPC/chol/PEG-DMG=50/15/35/1.5 (mol%)

Pdl [2, 8]	number average particle size [2, 8]	ζ-average particle size [2, 8]	Pdl [2, 9]	number average particle size [2, 9]	ζ-average particle size [2, 9]	ζ-potential [3, 8]	ζ-potential [3, 9]	mRNA concentration [4, 8]	mRNA encapsulation rate [4, 8]	mRNA concentration [4, 9]	mRNA encapsulation rate [4, 9]	pKa [6]	Compound	ED50 in factor VII (F7) knockdown (factor VII (F7))	fluorescence of EGFP in the liver tissues (liver [5])	other results
–	–	–	–	–	–	–	–	–	–	–	–	–	CCCCC/C=C\C/C=C\CCCCCCCCOC1(OCCCCCCCC/C=C\C/C=C\CCCCC)CCN(C)CC1 [YSK05]	0.06 mg siRNA/kg	–	–
–	–	–	–	–	–	–	–	–	–	–	–	–	2-((2-(2-((diheptylamino)methyl)cyclohexyl)acetoxy)methyl)-2-(3-(piperidin-1-yl)propanamido)propane-1,3-diyl bis(2-(diheptylcarbamoyl)cyclohexane-1-carboxylate) [TxT-5-4(6)A14]	–	–	Fluc activity in the liver relative to spleen and lung (liver [1]): particularly high activity confirmed in the liver; Fluc activity in the liver, spleen, and lung (various tissues): Fluc activity was observed in the organs, i.e., liver, spleen, and lungs
0.11	95.1 nm	136.2 nm	0.08	108.4 nm	136.2 nm	-4.4 mV	-8.7 mV	0.018 µg/µL	98.2%	0.022 µg/µL	97.8%	6.53	2-(6-(didecylamino)-2,6-dioxohexyl)-2-(3-(piperidin-1-yl)propanamido)propane-1,3-diyl bis(5-(didecylamino)-5-oxopentanoate) [TxT-5-5A20]	–	fluorescence of EGFP was observed	–
0.22	61.6 nm	103.7 nm	0.07	59.1 nm	81.4 nm	-11.2 mV	-6.0 mV	0.019 µg/µL	96.0%	0.020 µg/µL	97.9%	4.99	CCCCC(CC)CN(CC(CC)CCCC)C(=O)CCCC(=O)OCC(COC(=O)CCCC(=O)N(CC(CC)CCCC)CC(CC)CCCC)(COC(=O)CCCC(=O)N(CC(CC)CCCC)CC(CC)CCCC)NC(=O)CCN1CCCCC1 (stereo not shown) [TxT-5-5A16b]	–	fluorescence of EGFP was observed	–
–	–	–	–	–	–	–	–	–	–	–	–	–	CCCCC/C=C\C/C=C\CCCCCCCCC(CCCCCCCC/C=C\C/C=C\CCCCC)OC(=O)CCCN(C)C [MC3, DLin-MC3-DMA, reference compound]	0.005 mg siRNA/kg	–	Pdl [2, 10]: 0.20; number average particle size [2, 10]: 51.8 nm; ζ-average particle size [2, 10]: 83.6 nm; ζ-potential [3, 10]: -6.8 mV; mRNA concentration [4, 10]: 0.021 µg/µL; mRNA encapsulation rate [4, 10]: 98.8%; pKa [7, 10]: 6.23
0.10	124.5 nm	155.2 nm	0.13	80.2 nm	114.4 nm	-6.7 mV	-9.4 mV	0.019 µg/µL	85.9%	0.019 µg/µL	95.5%	–	CCCCCCN(CCCCCC)C(=O)CCCC(=O)OCC(COC(=O)CCCC(=O)N(CCCCCC)CCCCCC)(COC(=O)CCCC(=O)N(CCCCCC)CCCCCC)NC(=O)CCN1CCCCC1 [TxT-5-5A12, 2-(((5-(dihexylamino)-5-oxopentanoyl)oxy)methyl)-2-(3-(piperidin-1-yl)propanamido)propane-1,3-diyl bis(5-(dihexylamino)-5-oxopentanoate)]	–	fluorescence of EGFP was observed	Pdl [2, 11]: 0.08; number average particle size [2, 11]: 124.5 nm; ζ-average particle size [2, 11]: 155.2 nm; ζ-potential [3, 11]: -6.7 mV; mRNA concentration [4, 11]: 0.019 µg/µL; mRNA encapsulation rate [4, 11]: 85.9%; Fluc activity in the spleen (spleen): highest Fluc activity in the spleen; pKa ([7]; Table 1, apparent pKa of Fluc mRNA-loaded lipid nanoparticles, TxT/DSPC/chol/PEG-DMG=50/15/35/1.5 (mol%)): 6.44; pKa [7, 8]: 6.58

Source: EP4722195A1, “PH-SENSITIVE CATIONIC LIPID AND LIPID NANOPARTICLES” (National University Corporation Hokkaido University, priority 2023, dated 2024)
